Patent publication US11358947B2, “Substituted 2-acylamino-cycloalkylthiophene-3-carboxylic acid arylamides as inhibitors of calcium-activated chloride channel TMEM16A” (THE REGENTS OF THE UNIVERSITY OF CALIFORNIA, priority 2017, dated 2022)
“And” between values parts separate entries of the source, which are not always exact repeats. Identical values can stand only once.

How the values were obtained:
TMEM16A [1] = molecular target: T1, TMEM16A (Homo sapiens, UniProt Q5XXA6); test: TMEM16A functional fluorescence plate reader (FPR) assay, iodide influx in FRT cells with YFP; type: cell-based; conditions: TMEM16A-expressing FRT cells, compound 10 min before iodide/ATP
T1 sequence (Q5XXA6 1-986): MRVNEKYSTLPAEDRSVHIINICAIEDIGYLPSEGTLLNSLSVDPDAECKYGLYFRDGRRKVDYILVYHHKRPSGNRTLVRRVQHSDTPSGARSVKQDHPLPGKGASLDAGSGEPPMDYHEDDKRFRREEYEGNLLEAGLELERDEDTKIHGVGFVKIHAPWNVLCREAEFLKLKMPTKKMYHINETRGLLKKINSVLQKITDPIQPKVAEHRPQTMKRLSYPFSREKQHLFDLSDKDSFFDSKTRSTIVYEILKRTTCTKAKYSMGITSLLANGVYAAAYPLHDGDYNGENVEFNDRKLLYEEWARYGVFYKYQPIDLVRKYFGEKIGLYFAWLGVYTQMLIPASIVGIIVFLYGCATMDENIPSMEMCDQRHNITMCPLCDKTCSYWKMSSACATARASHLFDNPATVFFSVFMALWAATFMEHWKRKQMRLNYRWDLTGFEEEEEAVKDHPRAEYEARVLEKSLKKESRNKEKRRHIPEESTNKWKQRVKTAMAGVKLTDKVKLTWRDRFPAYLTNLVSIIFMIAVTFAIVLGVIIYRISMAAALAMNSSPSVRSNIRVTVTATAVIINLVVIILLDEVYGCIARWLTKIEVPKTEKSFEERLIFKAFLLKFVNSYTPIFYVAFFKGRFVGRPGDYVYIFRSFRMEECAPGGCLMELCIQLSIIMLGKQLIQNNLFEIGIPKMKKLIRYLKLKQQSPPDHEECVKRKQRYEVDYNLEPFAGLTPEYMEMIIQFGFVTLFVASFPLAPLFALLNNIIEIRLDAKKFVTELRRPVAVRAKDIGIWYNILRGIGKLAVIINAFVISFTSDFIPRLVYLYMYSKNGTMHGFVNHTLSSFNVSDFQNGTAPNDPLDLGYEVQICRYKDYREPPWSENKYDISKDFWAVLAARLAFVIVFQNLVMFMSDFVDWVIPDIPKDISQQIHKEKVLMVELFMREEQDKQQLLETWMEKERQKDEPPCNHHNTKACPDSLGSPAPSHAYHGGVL
Method: A high-throughput screening assay was previously developed to identify small molecule inhibitors of TMEM16A. […] The assay involved addition of test compounds to the cells for 10 min in a physiological chloride-containing solution, followed by addition of an iodide solution containing ATP. TMEM16A-facilitated iodide influx was determined from the initial time course of decreasing YFP fluorescence.
2-Acylamino-cycloalkylthiophene-3-carboxylic acid arylamides 6aa-6bw were initially evaluated for inhibition of TMEM16A anion channel function using a cell-based functional plate reader assay as reported.
Yields (%) are of the isolated or purified products. IC50 (μM) for inhibition of TMEM16A anion conductance using a fluorescence plate reader (FPR) assay.
Cell lines and culture. Fischer Rat Thyroid (FRT) cells stably co-expressing TMEM16A, TMEM16B and human wild-type CFTR and the halide-sensitive yellow fluorescent protein (YFP)-H148Q were cultured as described. […] For plate reader assays, cells were plated in black 96-well microplates (Corning-Costar Corp., New York, N.Y.) at a density of 20,000 cells per well and assayed 24-48 hours after plating.
(§1) TMEM16A functional assay. TMEM16A functional plate-reader assay was done as previously described. […] Test compounds (0.5 μl in DMSO) were added to each well at specified concentration. […] The initial rate of I− influx following each of the solution additions was computed from fluorescence data by nonlinear regression. TMEM16B activity was assayed similarly as described using FRT cells co-expressing YFP and TMEM16B.

TMEM16A [2] = molecular target: T1, TMEM16A; test: Short-circuit current assay in TMEM16A-expressing FRT cells; type: cell-based
Text: Measurements were done in FRT cells expressing TMEM16A.
(§2) Concentration-dependent inhibition of TMEM16A measured by short-circuit current assay; TMEM16B and non-TMEM16 anion conductance measured using a fluorescence plate reader assay using FRT and HT-29 cells respectively; cell viability measured in FRT null cells.
Short-circuit current measurement. Short-circuit current measurements were done as described. (See Piechowicz, K. A. et al., J Enzyme Inhib Med Chem 2016, 1-7.) Briefly, Snapwell inserts (Corning Costar, Corning, N.Y.) containing TMEM16A-expressing FRT cells were mounted in Ussing chambers (Physiological instruments, San Diego, Calif.). The hemichambers were filled with 5 ml of HCO3^− buffered solution (basolateral) and half-Cl^− solution (apical), and the basolateral membrane was permeabilized with 250 μg/ml amphotericin B. Solutions were bubbled with 95% O2/5% CO2 and maintained at 37° C., and short-circuit current was measured on a DVC-1000 voltage clamp (World Precision Instruments Inc., Sarasota, Fla.) using Ag/AgCl electrodes and 3 M KCl agar bridges.

TMEM16B = molecular target: T2, TMEM16B (Homo sapiens, UniProt Q9NQ90); test: TMEM16B fluorescence plate reader assay in FRT cells; type: cell-based
T2 construct: expressed in transfected cells; host or cells: Fischer Rat Thyroid (FRT) cells co-expressing YFP
T2 sequence (Q9NQ90 1-998): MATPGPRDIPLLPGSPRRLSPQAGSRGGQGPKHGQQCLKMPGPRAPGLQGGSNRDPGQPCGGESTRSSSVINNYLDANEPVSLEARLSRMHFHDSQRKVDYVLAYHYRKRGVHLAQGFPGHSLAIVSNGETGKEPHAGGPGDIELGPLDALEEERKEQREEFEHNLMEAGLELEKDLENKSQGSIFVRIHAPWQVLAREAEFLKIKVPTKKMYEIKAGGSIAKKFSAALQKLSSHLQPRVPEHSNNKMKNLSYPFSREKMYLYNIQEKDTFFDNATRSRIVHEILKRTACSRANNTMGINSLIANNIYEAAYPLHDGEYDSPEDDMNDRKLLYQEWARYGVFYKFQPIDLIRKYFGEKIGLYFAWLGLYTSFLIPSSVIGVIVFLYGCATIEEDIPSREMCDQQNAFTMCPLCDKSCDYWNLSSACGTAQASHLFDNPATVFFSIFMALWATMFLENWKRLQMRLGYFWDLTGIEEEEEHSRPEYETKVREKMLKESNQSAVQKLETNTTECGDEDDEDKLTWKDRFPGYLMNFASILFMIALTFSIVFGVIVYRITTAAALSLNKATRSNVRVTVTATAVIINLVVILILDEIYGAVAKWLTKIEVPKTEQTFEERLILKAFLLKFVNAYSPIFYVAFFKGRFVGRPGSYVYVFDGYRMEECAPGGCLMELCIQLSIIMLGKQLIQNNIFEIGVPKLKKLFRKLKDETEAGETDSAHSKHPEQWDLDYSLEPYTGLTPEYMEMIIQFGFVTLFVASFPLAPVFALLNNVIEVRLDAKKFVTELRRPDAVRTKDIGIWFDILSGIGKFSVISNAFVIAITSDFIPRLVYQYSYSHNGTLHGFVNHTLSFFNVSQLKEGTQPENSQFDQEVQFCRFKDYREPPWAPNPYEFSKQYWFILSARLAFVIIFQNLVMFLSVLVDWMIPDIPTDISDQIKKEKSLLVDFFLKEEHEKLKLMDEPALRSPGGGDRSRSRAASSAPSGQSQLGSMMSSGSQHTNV
Method: as §2
(§3) We further assayed the compound potency on endogenous non-TMEM16A. Ca^2+-activated Cl^− channel in HT-29 cells.
as §1

FRT null cells = test: Cytotoxicity by Alamar Blue assay in FRT cells; type: cell-based, rat; conditions: 8 h
Method: as §2, §3
Cytotoxicity. FRT cells were cultured overnight in black 96-well Costar microplates and incubated with 5 μM test compounds for 8 h. Cytotoxicity was measured by Alamar Blue assay (Invitrogen, Carlsbad, Calif.) as per the manufacturer's instructions.

SW-480 cells [3] = test: SW-480 cell proliferation, AlamarBlue after 72 h; type: cell-based; conditions: for IC50: Homo sapiens, SW480, AlamarBlue after 72 h of drug treatment, read-out: IC50 inhibition of SW-480 cell proliferation
Method: Compounds according to the present disclosure (structures shown in FIG. 5B) were tested for their inhibitory effect on proliferation of SW-480 cell line.
SW-480 cells were cultured on plastic in Leibovitz L15 medium supplemented with 10% fetal bovine serum, 2 mM L-glutamine, 100 units/mL penicillin, and 100 μg/mL streptomycin. The cells were incubated at 37° C. without CO2.
SW-480 cells were plated into black 96-well microplates (Corning-Costar Corp., New York, N.Y.) at 10% seeding. The cells were treated with test compounds dissolved in DMSO in serial dilution while maintaining the final concentration of DMSO at 0.5%. Plated cells were then incubated for 72 h at 37° C. Cell proliferation was quantified using the AlamarBlue assay (Invitrogen, Carlsbad, Calif.) as per the manufacturer's instructions. Data was normalized against untreated control cells that were lysed for 10 minutes using Triton-X100 (0.1% in PBS).

SW-480 cells [4] = conditions: several tumor cell lines including SW480, reported; cited from earlier work
[5] = In vitro metabolic stability with rat liver microsomes and NADPH; type: in vitro ADME; conditions: rat liver microsomes + NADPH, 180 min
Method: (3B) LC/MS traces showing total ion counts as a function of incubation time.
These compounds were incubated with rat liver microsomes and NADPH, and non-metabolized compounds were quantified by ESI-LCMS. […] It is speculated that Ani-9 could be oxidized at the aryl methyl or N—N bond; or hydrolyzed at the amide or hydrazone linkages.
Compounds (each 10 uM) were incubated for specific time points (2, 5, 15, 30, 60, 180 min) with shaking at 37° C. with rat liver microsomes (1 mg protein/mL, Sigma-Aldrich, St. Louis, Mo.) in potassium phosphate butler (100 mM) containing 1 mM NADPH. The mixture was then chilled on ice, and 0.5 mL of ice-cold ethyl acetate was added. Samples were centrifuged for 15 min at 3000 RPM. The supernatant was evaporated to dryness, and the residue was dissolved in 80 μL of mobile phase (acetonitrile:/water, 3:1, containing 0.1% formic acid) for LC/MS. Reverse-phase HPLC separation was carried out using a Waters C18 column (2.1 mm×100 mm, […]) equipped with a solvent delivery system (Waters model 2690, Milford, Mass.).

Cc1ccc(NC(=O)c2c(NC(=O)C(F)(F)F)sc3c2CCCC3)cc1 [Compound 6aw, 2-(2,2,2-Trifluoro-acetylamino)-4,5,6,7-tetrahydro-benzo[b]thiophene-3-carboxylic acid p-tolylamide]
IC50 (TMEM16A [1]): 200 to 300 nM and 220 nM

Cc1ccccc1NC(=O)c1c(NC(=O)C(F)(F)Cl)sc2c1CCCCC2 [Compound 6bk, 2-(2-Chloro-2,2-difluoro-acetylamino)-5,6,7,8-tetrahydro-4H-cyclohepta[b]thiophene-3-carboxylic acid o-tolylamide]
IC50 (TMEM16A [1]): 80 to 180 nM and 180 nM
IC50 (TMEM16A [2]): 230 nM
IC50 (TMEM16B): 400 nM
Cellular survival % at 5 μM (FRT null cells): 98%
IC50 (SW-480 cells [3]): 750 nM

CCC(=O)Nc1sc2c(c1C(=O)Nc1ccccc1)CCCCC2 [Compound 6ah, 2-Propionylamino-5,6,7,8-tetrahydro-4H-cyclohepta[b]thiophene-3-carboxylic acid phenylamide]
IC50 (TMEM16A [1]): 1200 nM

O=C(Nc1ccccc1OC(F)(F)F)c1c(NC(=O)C(F)(F)I)sc2c1CCC2 [Compound 6bw, 2-(2,2-Difluoro-2-iodo-acetylamino)-5,6-dihydro-4H-cyclopenta[b]thiophene-3-carboxylic add (2-trifluoromethoxy-phenyl)-amide]
IC50 (TMEM16A [1]): 1880 nM

CC(C)(C)C1CCc2c(sc(NC(=O)c3ccco3)c2C(=O)O)C1 (stereo not drawn) [CaCCinh-A01, 6-t-butyl-2-(furan-2-carboxamido)-4,5,6,7-tetrahydrobenzo[b] thiophene-3-carboxylic acid]
Concentrations reported to inhibit proliferation of TMEM16A-expressing tumor cell lines (SW-480 cells [4]): 10 to 20 µM

O=C(Nc1ccccc1)c1c(NC(=O)C(F)(F)Cl)sc2c1CCCCC2 [Compound 6bo, 2-(2-Chloro-2,2-difluoro-acetylamino)-5,6,7,8-tetrahydro-4H-cyclohepta[b]thiophene-3-carboxylic acid phenylamide]
IC50 (TMEM16A [1]): 925 nM

COc1ccccc1/C=N/NC(=O)COc1ccc(Cl)cc1C [Ani-9, reference compound]
Degradation (in words) [5]: near complete degradation

Cc1ccccc1NC(=O)c1c(NC(=O)C(F)(F)I)sc2c1CCCCC2 [Compound 6bn, 2-(2,2-Difluoro-2-iodo-acetylamino)-5,6,7,8-tetrahydro-4H-cyclohepta[b]thiophene-3-carboxylic acid o-tolylamide]
IC50 (TMEM16A [1]): 600 nM
IC50 (TMEM16A [2]): 730 nM
IC50 (TMEM16B): 1400 nM
Cellular survival % at 5 μM (FRT null cells): 96%

COc1ccc(Cl)cc1NC(=O)c1c(NC(=O)C(F)(F)F)sc2c1CCCCC2 [am1_47, N-(5-chloro-2-methoxyphenyl)-2-(2,2,2-trifluoroacetamido)-5,6,7,8-tetrahydro-4H-cyclohepta[b]thiophene-3-carboxamide]
IC50 (SW-480 cells [3]): 470 nM
Potency in inhibiting proliferation of SW480 cells compared with CaCCinh-A01 (in words) (SW-480 cells [3]; SW480 cells): considerably more potent than CaCCinh-A01

O=C(Nc1ccccc1F)c1c(NC(=O)C(F)(F)F)sc2c1CCCCC2 [Compound 6aj, 2-(2,2,2-Trifluoro-acetylamino)-5,6,7,8-tetrahydro-4H-cyclohepta[b]thiophene-3-carboxylic acid (2-fluoro-phenyl)-amide]
IC50 (TMEM16A [1]): 1300 nM
